Test results from patent US6869965B2, “Antimicrobial quinolone derivatives and use of the same to treat bacterial infections” (Pharmacia & Upjohn Company, priority 2000, dated 2005).

Key:
Assay type in all cases: cell-based
E. faecalis UC9217 = test: Antibacterial activity, MIC; conditions: strain UC9217
S. aureus UC9218 = test: Antibacterial activity, MIC; conditions: strain UC9218
S. pneumoniae UC9912 = test: Antibacterial activity, MIC; conditions: strain UC9912
H. influenzae UC30063 = test: Antibacterial activity, MIC; conditions: strain UC30063
M. catarrhalis UC30607 = test: Antibacterial activity, MIC; conditions: strain UC30607
E. coli UC6674 = test: Antibacterial activity, MIC; conditions: strain UC6674
[1] = system: E. faecalis, S. aureus, S. pneumoniae, H. influenzae, M. catarrhalis, E. coli; test: Antibacterial activity, overall statement on Table 1; conditions: summary in words of Table 1

Row | SMILES | MIC E. faecalis UC9217 (E. faecalis UC9217) | MIC S. aureus UC9218 (S. aureus UC9218) | MIC S. pneumoniae UC9912 (S. pneumoniae UC9912) | MIC H. influenzae UC30063 (H. influenzae UC30063) | MIC M. catarrhalis UC30607 (M. catarrhalis UC30607) | MIC E. coli UC6674 (E. coli UC6674) | antibacterial activity [1]
1 | CC(=O)NC[C@H]1CN(c2ccc(N3CCN(c4c(F)cc5c(=O)c(C(=O)O)cn6c5c4OCC6C)CC3)c(F)c2)C(=O)O1 (stereo partly shown) [Example 2] | 0.5 :g/mL | 1 :g/mL | 0.25 :g/mL | 4 :g/mL | 2 :g/mL | 16 :g/mL | 
2 | CC(=O)NC[C@H]1CN(c2ccc(-c3cc4c(cc3F)c(=O)c(C(=O)O)cn4C3CC3)c(F)c2)C(=O)O1 [Example 3, 7-(4{(5S)-5-[(Acetylamino)methyl]2-oxo-1,3-oxazolidin-3-yl}-2-fluorophenyl)-1-cyclopropyl-6-fluoro-4-oxo-1,4-dihydro-3-quinolinecarboxylic acid] | 8 :g/mL | 2 :g/mL | 4 :g/mL | 0.5 :g/mL | 4 :g/mL | 4 :g/mL | potent antibacterial activity
3 | CC(=O)NC[C@H]1CN(c2ccc(N3CCN(c4cc5c(cc4F)c(=O)c(C(=O)O)cn5C4CC4)CC3)c(F)c2)C(=O)O1 [Example 1] | 0.25 :g/mL | 0.5 :g/mL | 0.125 :g/mL | 8 :g/mL | 1 :g/mL | 16 :g/mL | 
